Results taken from patent US5922319A, “Methods of treating eye conditions with human leukocyte elastase (HLE) inhibitory agents” (University of Kentucky Research Foundation, priority 1989, dated 1999).

System: rabbit corneas thermally burned (corneal scarring, fibroblast proliferation, neovascularization)
Test: Thermal corneal burn in rabbit eyes, topical eye drops for two weeks, blind histopathology (H&E)
Type: in vivo
Description: 26 rabbits were tranquilized with acetylpromazine maleate, 16 mg/kg intramuscularly. 2% lidocaine HCl eye drops were instilled in each eye for corneal anesthesia. Once the corneas were anesthetized, an eyelid speculum was inserted and the lids were then separated. The corneas of each eye were thermally coagulated with the tip of a battery-powered ophthalmic cautery. […] Two drops of solution A, B or C were instilled in designated treated eyes every 15 min for 6 hrs., then every 2 hrs. for 12 hrs. Following this, two eye drops of the same solutions were instilled four times a day. Daily eye examination was performed and photographs were taken. Two weeks after treatment the rabbits were sacrificed by […] intracardiac injection of T-61 ([…]). Subsequently, the rabbits, eyeballs were enucleated, the globes placed in Bounri's solution (10% formalin solution) and submitted for histopathology cell analysis. The eyes were fixed with 10% formalin solution and labeled right (R) and left (L), as appropriate sectioned and stained with H & E (hematoxylin & eosin stains). Histological sections were read by a pathologist without knowledge of the previously undertaken experimental procedure (blind test).

`COC(=O)CCC(=O)N[C@@H](C)C(=O)N[C@@H](CCCCNC(=O)OCc1ccccc1)C(=O)N1CCC[C@H]1C(=O)CN(C(=O)Sc1nnnn1-c1ccccc1)C(C)C` [Compound 2, S-(1-phenyl-5-tetrazoyl)-N-[methoxysuccinyl-alanyl-(Nε -Carbobenzoxy)lysylprolylmethyl]-N-isopropyl-thiocarbamate] was tested, and the “Microscopic description of rabbit eyes: intensity of the reaction compared with the untreated specimen” value (Solution B, 10 μg/ml in normal saline with 1.4% w/v polyvinyl alcohol, eye drops, two weeks after corneal burn) was “The reaction is not quite as intense”, the “Protection against scarring due to corneal burns (magnitude)” value (Solution C, 50 μg/ml, versus untreated eyes) was “tenfold” and the “Overall effect of ophthalmic solutions on fibrosis, neovascularization and inflammation in corneal wound-healing” value (ophthalmic solutions B or C, rabbit corneal burn) was “effective in reducing fibrosis, neovascularization and inflammation”.
